Data on eight molecules can be found in ChEMBL document CHEMBL3243975 (J Med Chem, 1978).

The subject of assay [1] is Mus musculus. Kind of assay: Narcotic antagonist activity in sc dosed mouse assessed as inhibition of oxymorphone-induced nacrosis. Format: functional.
Assay [2] deals with Rattus norvegicus. In words: Narcotic antagonist activity in sc dosed rat assessed as inhibition of oxymorphone-induced straub tail effect. Type of assay: functional.
Assay [3] is filed under the species Mus musculus. Kind of assay: Narcotic agonist activity in mouse by writhing test. Type of assay: functional.
The species named for assay [4] is Rattus norvegicus. Kind of assay: Narcotic agonist activity in rat by writhing test. Format: functional. For orientation: Writhing tests count abdominal constrictions after an irritant is injected.
The species named for assay [5] is Sus scrofa. Kind of assay: Binding affinity to pig ileum opioid receptor. Type of assay: tissue-based.
The species named for assay [6] is Sus scrofa. In words: Agonist activity at pig ileum opioid receptor. Format: tissue-based.
Assay [7] is filed under the species Rattus norvegicus. Kind of assay: Narcotic agonist activity in rat by hot plate test. Type of assay: functional. Background: Hot-plate and tail-flick tests time the reaction to a heat stimulus.

The structures appear in SMILES notation. Some results are limits rather than exact numbers.

The term ED50 denotes the midpoint of the dose-response relation. As for `O=C1CC[C@@]2(O)[C@H]3Cc4ccc(O)c5c4[C@@]2(CCN3CC2CCC2)[C@H]1O5`, the ED50 turned out to be 0.57 mg/kg in assay [1], 0.19 mg/kg in assay [2], 0.39 mg/kg in assay [3] and 0.06 mg/kg in assay [4]. In addition, the Ke in assay [5] was determined as 3 nM. The ID50 in assay [6] came out at 0.06 µM.

Consider `O=C1CC[C@@]2(O)[C@H]3Cc4ccc(O)c5c4[C@@]2(CCN3CCc2ccccc2)[C@H]1O5`, for which the ED50 in assay [7] amounted to 0.014 mg/kg.

In the case of `CN1CC[C@]23c4c5ccc(O)c4O[C@H]2[C@@H](O)C=C[C@H]3[C@H]1C5` [MORPHINE], the 50% effective dose (ED50) in assay [3] came to 0.8 mg/kg; in assay [4], 0.26 mg/kg.

In the case of `CC(C)=CCN1CC[C@]23c4c5ccc(O)c4O[C@H]2C(=O)CC[C@@]3(O)[C@H]1C5` [NALMEXONE], the ED50 was 5.6 mg/kg in assay [1]; 1.4 mg/kg in assay [2]; 2 mg/kg in assay [3]; 0.74 mg/kg in assay [4]; 10.7 mg/kg in assay [7]. This molecule came in with a Ke in assay [5] of 43 nM. The molecule further registered an ID50 in assay [6] of 0.4 µM.

For the molecule `C=CCN1CC[C@]23c4c5ccc(O)c4O[C@H]2[C@@H](O)C=C[C@H]3[C@H]1C5` [NALORPHINE], the ED50 in assay [1] was found to be 1.45 mg/kg; in assay [2], 0.9 mg/kg; in assay [4], 1 mg/kg. In addition, the ID50 in assay [6] stood at 0.0243 µM.

As for `C=CCN1CC[C@]23c4c5ccc(O)c4O[C@H]2C(=O)CC[C@@]3(O)[C@H]1C5` [NALOXONE], the ED50 is 0.14 mg/kg in assay [1], 0.051 mg/kg in assay [2], > 100 mg/kg in assay [3] and > 100 mg/kg in assay [4].

Turning to `O=C1CC[C@@]2(O)[C@H]3Cc4ccc(O)c5c4[C@@]2(CCN3CC2CC2)[C@H]1O5` [NALTREXONE], the ED50 in assay [1] is 0.047 mg/kg; in assay [2] it was 0.023 mg/kg; in assay [3], > 100 mg/kg; in assay [4], 0.14 mg/kg. In addition, the Ke in assay [5] turned out to be 0.38 nM. The ID50 in assay [6] was > 0.85 µM.

Consider `CN1CC[C@]23c4c5ccc(O)c4O[C@H]2C(=O)CC[C@@]3(O)[C@H]1C5` [OXYMORPHONE], for which the ED50 in assay [3] is 0.046 mg/kg; in assay [4], 0.02 mg/kg; in assay [7], 0.17 mg/kg. In addition, the Ke in assay [5] amounted to 11.2 nM. Moreover, in assay [6], the ID50 came to 0.0121 µM.
